Where two headings read alike, the source gives them in different places. Square brackets hold non-standard residues; d marks the D form. Peptide text beside a SMILES is read from it. Nspe(4-Br) = C[C@H](NCC(=O)O)c1ccc(Br)cc1; Nlys = NCCCCNCC(=O)O
What was measured:
[1] = test system: C. auris CBS12373; test: Broth microdilution MIC; type: cell-based, Candida auris
[2] = test system: ESKAPEE pathogens (all bacteria); test: Geometric mean MIC, therapeutic index and selectivity ratio, all bacteria; type: cell-based; details: across the 23 ESKAPEE strains
Outline: (§1)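 Inoculum 5 × 10^5 CFU ml^−1 in CAMHB for antibiotics or MHB for peptidomimetics; incubated 37°C, 120 rpm, 16–20 h. Suspensions plated on Trypticase Soya Agar with phosphatidylcholine and Tween 80 for MBC/MFC. Geometric mean MIC computed across pathogens; therapeutic index calculated by formula.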

[3] = test system: Enterobacteriaceae; test: Geometric mean MIC, therapeutic index and selectivity ratio, Enterobacteriaceae; type: cell-based; details: Enterobacteriaceae (E. coli, K. pneumoniae, and E. aerogenes)
Outline: as §1

[4] = test system: MBL-producing bacteria; test: Geometric mean MIC, therapeutic index and selectivity ratio, MBL-producing bacteria; type: cell-based
Outline: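 Values are geometric means of MICs over the pathogen panel. MICs were read after 16–20 h shaking at 37°C and 120 rpm, with 5 × 10^5 CFU ml^−1 in MHB (peptidomimetics) or CAMHB (antibiotics), and bactericidal endpoints from subculture. Strips ran 20 h at 37°C on Mueller–Hinton agar lawns (1.5 × 10^8 CFU ml^−1).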

[5] = test system: C. auris strains; details: two C. auris strains
Outline: as §1

[6] = test system: horse red blood cells (RBCs); test: Haemolysis assay; type: cell-based
Outline: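 Washed horse RBCs exposed to peptoids at 0.5–250 μg ml^−1 in PBS for 4 h at 37 °C; supernatant OD 540 nm read after centrifugation. Percent haemolysis normalized between PBS (0%) and water (100%) controls, in triplicate.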

[7] = test system: A. baumannii 006
Outline: (§2)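 Growth inhibition was scored after 16–20 h shaking incubation (37°C, 120 rpm) of 5 × 10^5 CFU ml^−1 suspensions in Mueller–Hinton broth, cation-adjusted when antibiotics were tested.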

[8] = test system: A. baumannii 008
Outline: as §2

[9] = test system: A. baumannii ATCC 19 606
Outline: as §2

[10] = test system: E. coli 0010
Outline: as §2

[11] = test system: E. coli 005
Outline: as §2

[12] = test system: En. cloacae 001
Outline: as §2

[13] = test system: En. cloacae 005
Outline: as §2

[14] = test system: K. pneumoniae JIE2709
Outline: as §2

[15] = test system: K. pneumoniae JIE2713
Outline: as §2

[16] = test system: K. pneumoniae JIE4212
Outline: as §2

[17] = test system: P. aeruginosa 216
Outline: as §2

[18] = test system: P. aeruginosa AR-1270
Outline: as §2

[19] = test system: S. aureus 105
Outline: as §2

[20] = test system: S. aureus 38
Outline: as §2

C[C@@H](c1ccc(Br)cc1)N(CC(=O)N(CCCCN)CC(=O)N(CC(=O)N(CC(=O)N(CCCCN)CC(N)=O)[C@@H](C)c1ccc(Br)cc1)[C@@H](C)c1ccc(Br)cc1)C(=O)CN(C(=O)CNCCCCN)[C@@H](C)c1ccc(Br)cc1 [TM14] (H-[Nlys][Nspe(4-Br)][Nspe(4-Br)][Nlys][Nspe(4-Br)][Nspe(4-Br)][Nlys]-NH2)
MIC against C. auris ([1]; CBS 12 373, RPMI 1640 with MOPS, 5 × 10^3 CFU ml^−1, ≥90% reduction (≥50% for fluconazole)): 3.9 µg/mL
MIC against C. auris ([1]; CBS12373): 2.9 µM
Geometric mean MIC, all bacteria [2]: 19.9 µg/mL
Geometric mean MIC, all bacteria ([2]; value in brackets): 14.6 µM
Geometric mean MICE [3]: 31.3 µg/mL
Geometric mean MICMBL [4]: 24.1 µg/mL
Geometric mean MICCA [5]: 7.8 µg/mL
HD10 (10% haemolytic dose) [6]: 7.0 µmol/L
HD50 (50% haemolytic dose) [6]: 17.6 µmol/L
HD10 (10% haemolytic dose) ([6]; red cells of horse, 4 h): 9.6 µg/mL
HD50 (50% haemolytic dose) ([6]; red cells of horse, 4 h): 24 µg/mL
MIC of peptidomimetics [7]; 006: 11.4 µM
MIC of peptidomimetics ([7]; A. baumannii 006, MHB (melimine/Mel4 with 0.2% BSA, 0.01% acetic acid), mean MIC): 15.6 µg/mL
MIC of peptidomimetics [8]; 008: 23.0 µM
MIC of peptidomimetics ([8]; A. baumannii 008, MHB (melimine/Mel4 with 0.2% BSA, 0.01% acetic acid), mean MIC): 31.3 µg/mL
MIC of peptidomimetics ([9]; A. baumannii ATCC 19 606, MHB (melimine/Mel4 with 0.2% BSA, 0.01% acetic acid), mean MIC): 31.3 µg/mL
MIC of peptidomimetics ([9]; ATCC 19): 23.0 µM
MIC of peptidomimetics [10]; 0010: 23.0 µM
MIC of peptidomimetics ([10]; E. coli 0010, MHB (melimine/Mel4 with 0.2% BSA, 0.01% acetic acid), mean MIC): 31.3 µg/mL
MIC of peptidomimetics [11]; 005: 23.0 µM
MIC of peptidomimetics ([11]; E. coli 005, MHB (melimine/Mel4 with 0.2% BSA, 0.01% acetic acid), mean MIC): 31.3 µg/mL
MIC of peptidomimetics [12]: 11.5 µM
MIC of peptidomimetics ([12]; En. cloacae 001, MHB (melimine/Mel4 with 0.2% BSA, 0.01% acetic acid), mean MIC): 15.6 µg/mL
MIC of peptidomimetics [13]: 45.9 µM
MIC of peptidomimetics ([13]; En. cloacae 005, MHB (melimine/Mel4 with 0.2% BSA, 0.01% acetic acid), mean MIC): 62.5 µg/mL
MIC of peptidomimetics ([14]; JIE2709): 45.9 µM
MIC of peptidomimetics ([14]; K. pneumoniae JIE2709, MHB (melimine/Mel4 with 0.2% BSA, 0.01% acetic acid), mean MIC): 62.5 µg/mL
MIC of peptidomimetics ([15]; JIE2713): 5.7 µM
MIC of peptidomimetics ([15]; K. pneumoniae JIE2713, MHB (melimine/Mel4 with 0.2% BSA, 0.01% acetic acid), mean MIC): 7.8 µg/mL
MIC of peptidomimetics ([16]; JIE4212): 23.0 µM
MIC of peptidomimetics ([16]; K. pneumoniae JIE4212, MHB (melimine/Mel4 with 0.2% BSA, 0.01% acetic acid), mean MIC): 31.3 µg/mL
MIC of peptidomimetics [17]; 216: 11.5 µM
MIC of peptidomimetics ([17]; P. aeruginosa 216, MHB (melimine/Mel4 with 0.2% BSA, 0.01% acetic acid), mean MIC): 15.6 µg/mL
MIC of peptidomimetics ([18]; AR-1270): 45.9 µM
MIC of peptidomimetics ([18]; P. aeruginosa AR-1270, MHB (melimine/Mel4 with 0.2% BSA, 0.01% acetic acid), mean MIC): 62.5 µg/mL
MIC of peptidomimetics [19]; 105: 2.9 µM
MIC of peptidomimetics ([19]; S. aureus 105, MHB (melimine/Mel4 with 0.2% BSA, 0.01% acetic acid), mean MIC): 3.9 µg/mL
MIC of peptidomimetics [20]; 38: 2.9 µM
MIC of peptidomimetics ([20]; S. aureus 38, MHB (melimine/Mel4 with 0.2% BSA, 0.01% acetic acid), mean MIC): 3.9 µg/mL

Reference: paper PMC11879280, “Antimicrobial activity of peptoids against Metallo-β-lactamase-producing Klebsiella pneumoniae, Acinetobacter baumannii, Pseudomonas aeruginosa, and other WHO priority pathogens, including Candida auris” (Journal of Applied Microbiology, 2025)
